Results from ChEMBL document CHEMBL1201862, “PubChem BioAssay data set” (2004).
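Exposure lasted 48 hours, with cells grown in 96-well plates and compounds tested at five concentrations. GI50 marks 50% less growth.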 Calls of active or inactive are those of the source. Cut-off read from the data, not from the text of the source: active = GI50 up to about 1.1 µM and inactive = higher.

Columns and labels:
Experiment in all cases: NCI-60 cell line screen, 48 h
[1] = test system: NCI-H226
[2] = test system: SNB-75
[3] = test system: OVCAR-4
[4] = test system: UACC-257
[5] = test system: SF-295
[6] = test system: HOP-62
[7] = test system: CCRF-CEM
[8] = test system: HCC 2998
[9] = test system: RPMI-8226
[10] = test system: NCI-H522
[11] = test system: MOLT-4
[12] = test system: OVCAR-8
[13] = test system: Malme-3M
[14] = test system: K562
[15] = test system: KM12
[16] = test system: NCI-H460
[17] = test system: RXF 393

Measured: GI50

CCOC(=O)/C(C#N)=C(N)/C(=N\Nc1cccc(C(F)(F)F)c1)C(=O)OCC
inactive: [1] > 100 µM | [2] > 100 µM | [3] > 100 µM | [4] > 100 µM | [5] > 100 µM | [6] > 100 µM | [7] > 100 µM | [8] > 100 µM | [9] > 100 µM | [10] > 100 µM | [11] > 100 µM | [12] > 100 µM | [13] > 100 µM

COC(=O)C1CC2(c3ccccc3)C(=O)c3ccccc3N2O1 (stereo not drawn)
inactive: [1] > 100 µM | [2] 40.5 µM | [3] > 100 µM | [4] > 100 µM | [5] > 100 µM | [6] 71.3 µM | [7] 30.3 µM | [14] 31.8 µM | [8] > 100 µM | [9] 17.7 µM | [15] 72.4 µM | [10] 15.5 µM | [11] 22.1 µM | [16] 47.3 µM | [12] 41.9 µM | [13] > 100 µM

CC1(C)OC(C(N)=O)=C(C(N)=O)O1
inactive: [17] > 100 µM | [1] > 100 µM | [2] > 100 µM | [3] > 100 µM | [4] > 100 µM | [5] > 100 µM | [6] > 100 µM | [7] > 100 µM | [14] > 100 µM | [8] > 100 µM | [15] > 100 µM | [10] > 100 µM | [11] > 100 µM | [16] > 100 µM | [12] > 100 µM | [13] > 100 µM

c1c(N2CCOCC2)s[s+]c1N1CCOCC1
inactive: [17] > 100 µM | [1] 13.3 µM | [2] > 100 µM | [3] > 100 µM | [4] > 100 µM | [5] > 100 µM | [6] > 100 µM | [7] > 100 µM | [14] > 100 µM | [8] > 100 µM | [9] > 100 µM | [15] > 100 µM | [10] > 100 µM | [11] > 100 µM | [16] > 100 µM | [12] > 100 µM | [13] > 100 µM

COc1ccc(C(=O)C(C(=O)C(=O)NCCCNC(=O)C(=O)C(C(=O)c2ccc(OC)cc2)c2ccc(OC)cc2)c2ccc(OC)cc2)cc1 (stereo not drawn)
inactive: [1] > 100 µM | [2] > 100 µM | [3] > 100 µM | [4] > 100 µM | [5] > 100 µM | [6] > 100 µM | [7] > 100 µM | [14] > 100 µM | [8] > 100 µM | [9] > 100 µM | [15] > 100 µM | [10] > 100 µM | [11] > 100 µM | [16] > 100 µM | [12] > 100 µM | [13] > 100 µM

COC1(OC)CCC2(C)OC(c3ccccc3)C1O2 (stereo not drawn)
inactive: [17] > 100 µM | [1] > 100 µM | [2] > 100 µM | [3] > 100 µM | [4] > 100 µM | [5] > 100 µM | [6] > 100 µM | [7] > 100 µM | [14] > 100 µM | [8] > 100 µM | [9] > 100 µM | [15] > 100 µM | [10] > 100 µM | [11] > 100 µM | [16] > 100 µM | [12] > 100 µM | [13] > 100 µM

Cc1ccc(/C=C/C(=O)c2ccc([N+](=O)[O-])cc2)cc1
inactive: [17] > 100 µM | [1] > 100 µM | [2] > 100 µM | [3] > 100 µM | [4] > 100 µM | [5] > 100 µM | [6] > 100 µM | [7] > 100 µM | [14] > 100 µM | [8] > 100 µM | [15] > 100 µM | [10] 56.4 µM | [11] > 100 µM | [16] > 100 µM | [12] > 100 µM | [13] > 100 µM

CCOC(=O)C1S/C(=N\c2ccc(C)c(C)c2)N=C1C (stereo not drawn)
inactive: [1] > 100 µM | [2] 66.8 µM | [3] > 100 µM | [4] > 100 µM | [5] > 100 µM | [6] > 100 µM | [7] > 100 µM | [14] 59.3 µM | [8] > 100 µM | [9] 85.7 µM | [15] > 100 µM | [10] > 100 µM | [11] > 100 µM | [16] > 100 µM | [12] > 100 µM | [13] > 100 µM

C/C=C1/C(=Cc2[nH]c(C=c3[nH]/c(=C/C4=NC(=O)C(CC)=C4C)c(C)c3CCC(=O)O)c(CCC(=O)O)c2C)NC(=O)C1C (stereo not drawn)
inactive: [17] > 50 µM | [1] 2.59 µM | [2] 4.79 µM | [3] 11.1 µM | [4] 11 µM | [5] 6.65 µM | [6] 2.33 µM | [7] 2.1 µM | [14] 2.21 µM | [8] 11.4 µM | [15] 10.8 µM | [10] 6.19 µM | [11] 1.95 µM | [16] 13 µM | [12] 4.13 µM | [13] 13.6 µM

COC(=O)C1=C(C(=O)OC)SC(=C(/N=N/c2ccccc2)c2ccccc2)S1
inactive: [1] > 100 µM | [2] > 100 µM | [3] > 100 µM | [4] > 100 µM | [5] > 100 µM | [6] > 100 µM | [7] > 100 µM | [14] > 100 µM | [8] > 100 µM | [9] > 100 µM | [15] > 100 µM | [10] 83.6 µM | [11] > 100 µM | [16] > 100 µM | [12] > 100 µM | [13] > 100 µM

COc1ccc(NC(=O)CSc2nnc(Cc3ccccc3)o2)cc1
inactive: [17] > 100 µM | [1] > 100 µM | [2] > 100 µM | [3] > 100 µM | [4] > 100 µM | [5] 55.6 µM | [6] > 100 µM | [7] 82.2 µM | [14] > 100 µM | [8] > 100 µM | [9] 41.4 µM | [15] > 100 µM | [10] 53.7 µM | [11] > 100 µM | [16] > 100 µM | [12] > 100 µM | [13] > 100 µM

CCOC(=O)Nc1ccc(S(=O)(=O)OC)cc1.CCOC(=O)Nc1ccc(S(=O)(=O)OC)cc1.NC(=O)NCCO
inactive: [17] > 50 µM | [1] > 50 µM | [2] > 50 µM | [3] 41.9 µM | [4] 29.6 µM | [5] > 50 µM | [6] 23.6 µM | [7] 23.3 µM | [14] 16.1 µM | [8] > 50 µM | [9] 17.1 µM | [15] > 50 µM | [10] > 50 µM | [11] > 50 µM | [16] 22.1 µM | [12] 42.3 µM | [13] > 50 µM
